Results from patent US9302999B2, “Substituted triazoles as herbicides” (E. I. DU PONT DE NEMOURS AND COMPANY, priority 2012, dated 2016).

Legend:
Type in all cases: in vivo
[1] = test system: dayflower, VA (Virginia (VA) dayflower, Commelina virginica); test: Test F pre-/postemergence: dayflower, VA
Excerpt: (§1) Seeds of plant species selected from corn (Zea mays), soybean (Glycine max), velvetleaf (Abutilon theophrasti), lambsquarters (Chenopodium album), poinsettia, wild (wild poinsettia, Euphorbia heterophylla), pigweed, palmer (palmer pigweed, Amaranthus palmeri), waterhemp (common waterhemp, Amaranthus rudis), surinam grass (Brachiaria decumbens), crabgrass, Brazil (Brazilian crabgrass, Digitaria horizontalis), panicum, fall (fall panicum Panicum dichotomiflorum), crabgrass, large (large crabgrass, Digitaria sanguinalis), foxtail, giant (giant foxtail, Setaria faberii), foxtail, green (green foxtail Setaria viridis), goosegrass (Eleusine indica), ragweed (common ragweed, Ambrosia elatior), barnyardgrass (Echinochloa crus-galli), sandbur (southern sandbur, Cenchrus echinatus), arrowleaf sida (Sida rhombifolia), ryegrass, Italian (Italian ryegrass, Lolium multiflorum), dayflower, VA (Virginia (VA) dayflower, Commelina virginica), field bindweed (Convolvulus arvensis), cocklebur (common cocklebur, Xanthium strumarium), morningglory (Ipomoea coccinea), nightshade (eastern black nightshade, Solanum ptycanthum), kochia (Kochia scoparia), nutsedge, yellow (yellow nutsedge, Cyperus esculentus), johnsongrass (Sorghum halepense), smartweed (ladysthumb smartweed, Polygonum persicaria), and beggarticks (hairy beggarticks, Bidens pilosa), were planted into a silt loam soil and treated preemergence with test chemicals formulated in a non-phytotoxic solvent mixture which included a surfactant. At the same time, plants selected from these crop and weed species and also pigweed (Amaranthus retroflexus), waterhemp_RES1 (ALS/Triazine resistant common waterhemp, Amaranthus rudis) and waterhemp_RES2 (ALS/HPPD resistant common waterhemp, Amaranthus rudis) were planted in pots containing a planting medium comprising spaghnum peat moss, vermiculite, wetting agent and starter nutrients treated with postemergence applications of some of the test chemicals formulated in the same manner. Plants ranged in height from 2 to 18 cm for postemergence treatments (1- to 4-leaf stage).
(§2) Treated plants and controls were maintained in a greenhouse for 14 to 21 days, after which time all species were compared to controls and visually evaluated. Plant response ratings, summarized in Table E, are based on a scale of 0 to 100 where 0 is no effect and 100 is complete control. A dash (-) response means no test result.

[2] = test system: morningglory (Ipomoea coccinea); test: Test F pre-/postemergence: morningglory; details: Preemergence
Excerpt: as §1, §2

[3] = test system: lambsquarters (Chenopodium album); test: Test E pre-/postemergence: lambsquarters; details: Preemergence, scale 0 to 100
Excerpt: (§3) Seeds of plant species selected from corn (Zea mays), soybean (Glycine max), velvetleaf (Abutilon theophrasti), lambsquarters (Chenopodium album), poinsettia, wild (wild poinsettia, Euphorbia heterophylla), pigweed, palmer (palmer pigweed, Amaranthus palmeri), waterhemp (common waterhemp, Amaranthus rudis), smartweed (ladysthumb smartweed, Polygonum persicaria), surinam grass (Brachiaria decumbens), crabgrass, large (large crabgrass, Digitaria sanguinalis), crabgrass, Brazil (Brazilian crabgrass, Digitaria horizontalis), panicum, fall (fall panicum, Panicum dichotomiflorum), foxtail, giant (giant foxtail, Setaria faberii), foxtail, green (green foxtail, Setaria viridis), goosegrass (Eleusine indica), johnsongrass (Sorghum halepense), ragweed (common ragweed, Ambrosia elation), barnyardgrass (Echinochloa crus-galli), sandbur (southern sandbur, Cenchrus echinatus), arrowleaf sida (Sida rhombifolia), ryegrass, Italian (Italian ryegrass, Lolium multiflorum), dayflower, (VA) (Virginia dayflower, Commelina virginica), field bindweed (Convolvulus arvensis), cocklebur (common cocklebur, Xanthium strumarium), morningglory (Ipomoea coccinea), nightshade (eastern black nightshade, Solanum ptycanthum), kochia (Kochia scoparia), nutsedge, yellow (yellow nutsedge, Cyperus esculentus) and beggarticks (hairy beggarticks, Bidens pilosa) were planted into a silt loam soil and treated preemergence with test chemicals formulated in a non-phytotoxic solvent mixture which included a surfactant. At the same time, plants selected from these crop and weed species were planted in pots containing a growing medium comprising spaghnum peat moss, vermiculite, wetting agent and starter nutrients and treated with postemergence applications of some of the test chemicals formulated in the same manner. Plants ranged in height from 2 to 18 cm for postemergence treatments (1- to 4-leaf stage).
as §2

[4] = test system: pigweed, palmer (palmer pigweed, Amaranthus palmeri); test: Test E pre-/postemergence: pigweed, palmer; details: scale 0 to 100
Excerpt: as §3, §2

[5] = test system: ryegrass, Italian (Italian ryegrass, Lolium multiflorum); test: Test E pre-/postemergence: ryegrass, Italian; details: scale 0 to 100
Excerpt: as §3, §2

[6] = test system: nightshade (eastern black nightshade, Solanum ptycanthum); test: Test E pre-/postemergence: nightshade; details: Preemergence, scale 0 to 100
Excerpt: as §3, §2

[7] = Postemergence, 8 g ai/ha, scale 0 to 100
[8] = Postemergence, 16 g ai/ha, scale 0 to 100
[9] = Postemergence, 31 g ai/ha, scale 0 to 100
[10] = Postemergence, 62 g ai/ha, scale 0 to 100
[11] = Preemergence, 16 g ai/ha, scale 0 to 100 (0 no effect, 100 complete control)
[12] = Preemergence, 31 g ai/ha, scale 0 to 100 (0 no effect, 100 complete control)
[13] = Preemergence, 62 g ai/ha, scale 0 to 100
[14] = 16 g ai/ha, scale 0 to 100 (0 no effect, 100 complete control)
[15] = 31 g ai/ha, scale 0 to 100 (0 no effect, 100 complete control)

In the case of `Cc1nn(-c2ccc(C(F)(F)F)c(F)c2)nc1Cc1ccnc(C(F)(F)F)c1` [Compound 162], the “Plant response rating, Dayflower, VA” value ([1]; Postemergence, 4 g ai/ha, scale 0 to 100) was 5, the “Plant response rating, Dayflower, VA” value [1, 7] was 15 and the “Plant response rating, Dayflower, VA” value [1, 8] was 20. For the same compound, the “Plant response rating, Dayflower, VA” value [1, 9] was 20, the “Plant response rating, Dayflower, VA” value [1, 10] was 25 and the “Plant response rating, Dayflower, VA” value ([1]; Preemergence, 4 g ai/ha, scale 0 to 100, 0 no effect, 100 complete control) was 0. For the same compound, the “Plant response rating, Dayflower, VA” value ([1]; Preemergence, 8 g ai/ha, scale 0 to 100, 0 no effect, 100 complete control) was 35, the “Plant response rating, Dayflower, VA” value [1, 11] was 35 and the “Plant response rating, Dayflower, VA” value [1, 12] was 35. For the same compound, the “Plant response rating, Dayflower, VA” value [1, 13] was 65, the “Plant response rating, Morningglory” value ([2]; 4 g ai/ha, scale 0 to 100, 0 no effect, 100 complete control) was 0 and the “Plant response rating, Morningglory” value ([2]; 8 g ai/ha, scale 0 to 100, 0 no effect, 100 complete control) was 0. For the same compound, the “Plant response rating, Morningglory” value [2, 14] was 20 and the “Plant response rating, Morningglory” value [2, 15] was 30.
With `Cc1nn(-c2ccc(F)c(F)c2)nc1Oc1ccnc(C(F)(F)F)c1` [Compound 145] the “Plant response rating, Dayflower, VA” value [1, 7] was 15, the “Plant response rating, Dayflower, VA” value [1, 8] was 20 and the “Plant response rating, Dayflower, VA” value [1, 9] was 50. The “Plant response rating, Dayflower, VA” value [1, 10] was 60 and the “Plant response rating, Dayflower, VA” value ([1]; Postemergence, 125 g ai/ha, scale 0 to 100) was 70.
For `Cc1nn(-c2ccc(C(F)(F)F)cc2)nc1Cc1ccnc(C(F)(F)F)c1` [Compound 47, 4-[[5-methyl-2-[4-(trifluoromethyl)phenyl]-2H-1,2,3-triazol-4-yl]methyl]-2-(trifluoromethyl)pyridine], the “Plant response rating: Lambsquarters” value ([3]; 16 g ai/ha) was 95, the “Plant response rating: Lambsquarters” value ([3]; 31 g ai/ha) was 95 and the “Plant response rating: Lambsquarters” value ([3]; 62 g ai/ha) was 98. For the same compound, the “Plant response rating: Lambsquarters” value ([3]; 125 g ai/ha) was 100, the “Plant response rating: Lambsquarters” value ([3]; 250 g ai/ha) was 100 and the “Plant response rating: Pigweed, Palmer” value ([4]; Postemergence, 250 g ai/ha) was 100. For the same compound, the “Plant response rating: Pigweed, Palmer” value ([4]; Postemergence, 16 g ai/ha) was 70, the “Plant response rating: Pigweed, Palmer” value ([4]; Postemergence, 31 g ai/ha) was 90 and the “Plant response rating: Pigweed, Palmer” value ([4]; Postemergence, 62 g ai/ha) was 95. The “Plant response rating: Pigweed, Palmer” value ([4]; Postemergence, 125 g ai/ha) was 100, the “Plant response rating: Pigweed, Palmer” value ([4]; Preemergence, 16 g ai/ha) was 100 and the “Plant response rating: Pigweed, Palmer” value ([4]; Preemergence, 31 g ai/ha) was 100. The “Plant response rating: Pigweed, Palmer” value ([4]; Preemergence, 62 g ai/ha) was 100, the “Plant response rating: Pigweed, Palmer” value ([4]; Preemergence, 125 g ai/ha) was 100 and the “Plant response rating: Pigweed, Palmer” value ([4]; Preemergence, 250 g ai/ha) was 100. The “Plant response rating: Ryegrass, Italian” value ([5]; Postemergence, 250 g ai/ha) was 80, the “Plant response rating: Ryegrass, Italian” value ([5]; Postemergence, 16 g ai/ha) was 10 and the “Plant response rating: Ryegrass, Italian” value ([5]; Postemergence, 31 g ai/ha) was 20. The “Plant response rating: Ryegrass, Italian” value ([5]; Postemergence, 62 g ai/ha) was 30, the “Plant response rating: Ryegrass, Italian” value ([5]; Postemergence, 125 g ai/ha) was 50 and the “Plant response rating: Ryegrass, Italian” value ([5]; Preemergence, 16 g ai/ha) was 20. For the same compound, the “Plant response rating: Ryegrass, Italian” value ([5]; Preemergence, 31 g ai/ha) was 40, the “Plant response rating: Ryegrass, Italian” value ([5]; Preemergence, 62 g ai/ha) was 70 and the “Plant response rating: Ryegrass, Italian” value ([5]; Preemergence, 125 g ai/ha) was 100. The “Plant response rating: Ryegrass, Italian” value ([5]; Preemergence, 250 g ai/ha) was 100, the “Plant response rating: Nightshade” value ([6]; 31 g ai/ha) was 75 and the “Plant response rating: Nightshade” value ([6]; 62 g ai/ha) was 98. The “Plant response rating: Nightshade” value ([6]; 125 g ai/ha) was 98 and the “Plant response rating: Nightshade” value ([6]; 250 g ai/ha) was 98.
`Fc1ccc(-n2nc(Cc3ccnc(C(F)(F)F)c3)c(OCC(F)(F)F)n2)cc1` [Compound 142] was tested, and the “Plant response rating, Dayflower, VA” value [1, 11] was 0, the “Plant response rating, Dayflower, VA” value [1, 12] was 5 and the “Plant response rating, Dayflower, VA” value [1, 13] was 50. The “Plant response rating, Dayflower, VA” value ([1]; Preemergence, 125 g ai/ha, scale 0 to 100) was 70, the “Plant response rating, Morningglory” value [2, 14] was 0 and the “Plant response rating, Morningglory” value [2, 15] was 0. The “Plant response rating, Morningglory” value ([2]; 125 g ai/ha, scale 0 to 100) was 35.
